Measured values as given in patent US6593365B1, “Diflunisal esters and related compounds” (The University of Queensland, priority 1997, dated 2003).
Where two headings read alike, the source gives them in different places. Marks after values point to notes of the source that are not given here.

Tests used:
[1] = In vitro non-enzymatic hydrolysis in Krebs-Henseleit buffer; assay type: physicochemical; conditions: for Hydrolysis rate constant (k): pH 7.4, 25° C., n=5; for half-life: pH 7.4, read-out: Half life (t1/2) (converted)
Outline: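 Derivatives dissolved in Krebs-Henseleit buffer, pH 7.4, 25±1° C, with no protein or 2% w/v BSA; solutions sonicated and centrifuged, supernatant sampled over time. First-order hydrolysis rate constant k derived from ester concentration vs time, and half-life calculated from k.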

[2] = biological target: T1, BSA (bovine serum albumin) (Bos taurus, UniProt P02769); test: Protein binding by ultrafiltration in 2% BSA Krebs buffer; assay type: in vitro ADME; conditions: 2% BSA Krebs-Henseleit buffer pH 7.4, 37° C.; slope of Scatchard plot
T1 construct: BSA (bovine serum albumin, fraction V, Sigma); purchased Sigma; host or cells: bovine serum (fraction V)
T1 sequence (P02769 25-607): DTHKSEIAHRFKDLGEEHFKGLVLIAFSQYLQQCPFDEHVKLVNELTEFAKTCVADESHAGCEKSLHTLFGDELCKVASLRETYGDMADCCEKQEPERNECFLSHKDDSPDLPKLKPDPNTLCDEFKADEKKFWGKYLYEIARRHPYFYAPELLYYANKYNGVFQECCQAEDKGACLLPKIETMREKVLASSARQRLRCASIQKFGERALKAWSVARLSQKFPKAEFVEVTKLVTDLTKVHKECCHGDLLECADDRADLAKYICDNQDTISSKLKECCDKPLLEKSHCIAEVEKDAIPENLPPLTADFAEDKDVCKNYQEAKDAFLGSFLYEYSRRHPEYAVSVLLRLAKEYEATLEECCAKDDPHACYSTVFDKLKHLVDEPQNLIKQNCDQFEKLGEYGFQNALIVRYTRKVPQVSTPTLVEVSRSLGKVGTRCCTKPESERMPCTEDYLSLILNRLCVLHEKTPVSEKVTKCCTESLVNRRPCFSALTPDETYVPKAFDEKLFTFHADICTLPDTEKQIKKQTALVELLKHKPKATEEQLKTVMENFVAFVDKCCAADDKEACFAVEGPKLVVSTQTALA
Description: These experiments were carried out in Krebs-Henseleit buffer containing 2% w/v BSA (pH 7.4) and incubated at 37° C. for 30 minutes.
A known concentration of the ethanolic (≲1%) aspirin analogue or diflunisal ester stock solution was added to the 2% BSA Krebs solution to make final concentrations of 125 μM, 250 μM and 500 μM.
The unbound fraction (fu) of parent drug and its hydrolysis product were investigated using ultra-filtration: A 1.0 mL aliquot sample (in triplicate) was placed in a ultrafiltration tube (MPS-1, micro-partition system, Amicon) and centrifuged at 3000 g for 10 minutes. The ultra-filtrate was then assayed for parent drug and its hydrolysis product by HPLC.
To eliminate possible errors caused by hydrolysis, identical samples were placed in normal tubes and subjected to the same procedure. This control group (also in triplicate) was used to adjust for the percentage of hydrolysis in the ultra-filtrate under the experimental conditions.
The fu was determined as the ratio of the free concentration to total concentration of solutes. The binding constant (K) was determined from the slope of a Scatchard plot using following equation:
[Db]/[D]=−K[Db]vK[Pt] (3)
where [Db] is the concentration of bound drug, [D] is the concentration of drug, [Pt] is the concentration of total protein, and v is the number of independent binding sites available. This equation is plotted as the ratio [Db]/[D] versus [Db] and in this way the binding constant (K) is determined from the slope while vK[Pt] is determined from the intercept (Martin, 1983).

[3] = test system: OH. generated from Fenton's reaction; test: Luminol-dependent chemiluminescence induced by Fenton's reagent; assay type: biochemical; parameters: unit of the concentration uncertain; conditions: F: CL induced by Fenton's reagent, n=3
Description: CL was measured with a luminometer (Model 1250; LKB Wallac, Finland) and recorded in millivolts (Cheung et al., 1984, supra).
Fenton's reagent (FeSO4 and H2O2) was used as a standard reaction mixture for the generation of OH. (Lai and Piette, 1979, Tetrahedron Lett. 775-778):
Fe^+++H2O2→Fe^++++OH.+OH (1)
The initial reaction mixture consisted of 20 μL of 3.8 mM FeSO4.7H2O, 20 μL of 5 mg/mL luminol (Sigma), and 2 mL of 1 mM phosphate buffer in a 3 mL polystyrene cuvette. Twenty microlitres of 320 mM H2O2 was added to initiate the Fenton's reaction.
A known concentration of the ethanolic (≲1%) aspirin analogue or diflunisal ester's stock solution was added to the 1 mM phosphate buffer to prepare solutions with a final concentration of 50 μM, 250 μM or 500 μM. Twenty microlitres of these test samples was added onto the cuvette which contained the initial reaction mixture. H2O2 was added to induce CL reaction. The luminol-dependent CL response was recorded in mV by a potentiometric recorder.
(§1) CL measurements were always done in triplicate and Student's t-test used to assess the statistical significance of the difference between measurements.

[4] = test system: superoxide generated from xanthine oxidase plus xanthine reaction; test: Xanthine oxidase plus xanthine-induced chemiluminescence; assay type: biochemical; parameters: dose or concentration left out as unconfirmed; conditions: X: CL induced by xanthine oxidase plus xanthine
Description: To clarify the role of aspirin analogues and diflunisal esters in free radicals scavenging, the Fenton's reagent was replaced by an artificial superoxide generating system in the CL inhibition studies. This cell-free system consisted of 100 μg/mL of xanthine oxidase (Sigma) plus 0.5 μM xanthine (Sigma) (Rosen and Klebanoff, 1976, J Clin Invest 58 50-60; Cheson et al., 1976, J Clin Invest 58 789-796).
as §1

[5] = biological target: T1, BSA (bovine serum albumin); conditions: 2% BSA; Hung et al., 1996; cited from earlier work
[6] = 0.5 (unit uncertain) compound, U = undetectable
[7] = Krebs-Henseleit buffer 0% BSA, U = Undetectable
[8] = bovine, Krebs-Henseleit buffer with 2% w/v BSA
[9] = protein-free Krebs-Henseleit buffer, Krebs-Henseleit buffer 0% BSA, first half life, t1/2=0.693/k, U = Undetectable

Hydrolysis rate constant (k) ([1]; Krebs-Henseleit buffer 2% BSA) [hour^1]	Protein binding constant (K) [2] [L/mol]	CL inhibition (%) [4] [%]	Hydrolysis rate constant (k) [1, 7] [hour^1]	half-life [1, 8] [h]	half-life [1, 9] [h]	Molecule	CL inhibition (%) [3, 6]	CL inhibition (%) ([3]; 2.5 (unit uncertain) compound)	CL inhibition (%) ([3]; 5 (unit uncertain) compound)	fub (unbound fraction) [5]
0.0113 ± 0.0037	2707	0.8 ± 0.0				CCCCC(=O)Oc1ccc(-c2ccc(F)cc2F)cc1C(=O)O [Compound C5D, n-pentanoyldiflunisal]	22.2 ± 7.1%	58.2 ± 2.5	88.8 ± 0.9	0.12 ± 0.01
0.0238 ± 0.0095	2077	0.5 ± 0.0	0.0378 ± 0.0105			CC(=O)Oc1ccc(-c2ccc(F)cc2F)cc1C(=O)O [Compound C2D, acetyldiflunisal]	21.3 ± 5.0%	49.8 ± 3.9	91.2 ± 0.6	0.27 ± 0.02
0.0056 ± 0.0042	2995	0.7 ± 0.1				CCCCCC(=O)Oc1ccc(-c2ccc(F)cc2F)cc1C(=O)O [Compound C6D, n-hexanoyldiflunisal]	20.5 ± 4.6%	54.8 ± 2.4	92.7 ± 3.1	0.08 ± 0.00
0.0138 ± 0.0058	2365	0.6 ± 0.1				CCCC(=O)Oc1ccc(-c2ccc(F)cc2F)cc1C(=O)O [Compound C4D, n-butanoyldiflunisal]	16.9 ± 4.9%	65.1 ± 2.1	93.7 ± 0.5	0.14 ± 0.01

Continued, molecule first:

Molecule	Hydrolysis rate constant (k) ([1]; Krebs-Henseleit buffer 2% BSA) [hour^1]	Protein binding constant (K) [2] [L/mol]	CL inhibition (%) [4] [%]	Hydrolysis rate constant (k) [1, 7] [hour^1]	half-life [1, 8] [h]	half-life [1, 9] [h]	CL inhibition (%) [3, 6]	CL inhibition (%) ([3]; 2.5 (unit uncertain) compound)	CL inhibition (%) ([3]; 5 (unit uncertain) compound)	fub (unbound fraction) [5]
CCCC(=O)Oc1ccccc1C(=O)O [Compound C4SA, n-butanoylsalicylic acid]	0.0031 ± 0.0015		0.3 ± 0.1	0.0049 ± 0.0037	224	141		41.3 ± 7.5	84.2 ± 1.4	
CCCCC(=O)Oc1ccccc1C(=O)O [Compound C5SA, n-pentanoylsalicylic acid]	0.0028 ± 0.0013	1525	0.3 ± 0.0	0.0061 ± 0.0027	248	114	0.4 ± 0.1^e %	45.9 ± 5.0	95.6 ± 0.4	
O-acetylsalicylic acid [Compound C2SA, reference compound]		192	0.4 ± 0.1					43.3 ± 5.0	97.6 ± 0.5	
CCCCCC(=O)Oc1ccccc1C(=O)O [Compound C6SA, n-hexanoylsalicylic acid]	0.0021 ± 0.0017	2071	0.2 ± 0.0	0.0059 ± 0.0023	330	117	0.2 ± 0.1%	56.0 ± 3.7	96.0 ± 2.1	
O=C(O)c1cc(-c2ccc(F)cc2F)ccc1O [DF, 2′,4′-difluoro-4-hydroxy-3-biphenylcarboxylic acid, reference compound]			0.4 ± 0.1				19.2 ± 6.9%	50.6 ± 2.8	92.1 ± 0.6	
